Measurements: US20220274927A1, “MEMBRANE-ACTIVE ANTI-BACTERIAL COMPOUNDS AND USES THEREOF” (Trustees of Dartmouth College, priority 2019, published 2022)
Converted amounts (≈) assume the structure as drawn.

Key:
[1] = system: methicillin-resistant S. aureus (FPR3757); assay: MIC against clinical MRSA strain FPR3757 in Mueller-Hinton broth (CLSI); assay type: cell-based, Staphylococcus aureus; settings: Staphylococcus aureus, MRSA, MRSA clinical strain FPR3757, Mueller-Hinton broth, CLSI guidelines, complete inhibition of observable growth; read-out: MIC
Source text: (§1) The first set of compounds evaluated were analogs at the C-7 and C-8 positions of the initial quinolone hit DNAC-2 since the other HTS hits identified (data not shown) were substituted at these positions (Table 1). Applicants first explored modification at the C-7 position with a small series of electron-donating and withdrawing substituents. […] However, analogs containing electron donating groups at C-7 including ethyl 7, benzyloxy 8, methoxy 9 and methylthio 10 are weakly active displaying MICs of 320-640 μg/mL indicating electron-donating substituents at C-7 are poorly tolerated. […] The C-8 position was evaluated with trifluoromethyl 4 and trifluoromethoxy 5 containing the optimal C-7 substituents. Both 4 and 5 are equipotent to the corresponding C-7 analogs 2 and 3 indicating some flexibility of the quinolone scaffold.

[2] = system: S. aureus MW2; assay: Antimicrobial susceptibility MIC, S. aureus MW2; assay type: cell-based; settings: Staphylococcus aureus; S. aureus strain MW2; read-out: MIC
Source text: as §1
(§2) The compounds maintain activity against Staphylococcus epidermidis; however, 31, 111 and 123 all lose considerable potency against Enterococcus faecalis and Enterococcus faecium, which contribute heavily, along with MRSA, to healthcare-associated infections.

[3] = system: S. aureus COL; assay: Antimicrobial susceptibility MIC, S. aureus COL; assay type: cell-based; settings: Staphylococcus aureus; S. aureus strain COL
Source text: as §1, §2

[4] = system: S. aureus N325; assay: Antimicrobial susceptibility MIC, S. aureus N325; assay type: cell-based; settings: Staphylococcus aureus; S. aureus strain N325
Source text: as §1, §2

[5] = system: S. aureus NRS71; assay: Antimicrobial susceptibility MIC, S. aureus NRS71; assay type: cell-based; settings: Staphylococcus aureus; S. aureus strain NRS71
Source text: as §1, §2

[6] = system: S. aureus NIH04008; assay: Antimicrobial susceptibility MIC, S. aureus NIH04008; assay type: cell-based; settings: Staphylococcus aureus; S. aureus strain NIH04008; read-out: MIC
Source text: as §1, §2

[7] = system: S. epidermidis NIH04003; assay: Antimicrobial susceptibility MIC, S. epidermidis NIH04003; assay type: cell-based; settings: Staphylococcus epidermidis; S. epidermidis strain NIH04003
Source text: as §1, §2

[8] = system: E. faecalis DHMC #1; assay: Antimicrobial susceptibility MIC, E. faecalis DHMC #1; assay type: cell-based; settings: Enterococcus faecalis; E. faecalis strain DHMC #1
Source text: as §1, §2

[9] = system: E. faecium DHMC #1; assay: Antimicrobial susceptibility MIC, E. faecium DHMC #1; assay type: cell-based; settings: Enterococcus faecium; E. faecium strain DHMC #1
Source text: as §1, §2

[10] = system: clinical methicillin-resistant Staphylococcus aureus (MRSA) isolates; assay: MIC against panel of MRSA / staphylococcal strains (text summaries); assay type: cell-based; settings: six S. aureus strains of Table 9, read-out: MIC towards all six S. aureus strains
Source text: as §1, §2

[11] = system: erythrocyte membranes (versus S. aureus membranes); assay: in vitro; assay type: cell-based, sheep; settings: sheep; read-out: selectivity for S. aureus membranes over erythrocyte membranes
Method: FIG. 8 illustrates percent hemolysis analysis of sheep erythrocytes. Concentration-dependent hemolysis was measured by monitoring the optical density (OD)540 of PBS-washed sheep erythrocytes. Complete hemolysis (100%) was confirmed by treatment of erythrocytes with Triton X-100. Data points represent the mean±SD of triplicate experiments.
The macromolecular synthesis assay, TEM, and FM experiments were all consistent with membrane disruption. […] The high membrane selectivity of the 5-aminoquinolin-4-ones in this assay is impressive and is in accordance with the observed therapeutic index (CC50/MIC).

[12] = Solubility; assay type: physicochemical
[13] = system: MRSA; settings: HTS hit, previously reported by Applicants; cited from earlier work
[14] = system: membrane of gram-positive bacteria; settings: previously reported; cited from earlier work
[15] = system: eukaryotic membranes; settings: cited from earlier work

MIC [1] [µg/mL]	MIC [2] [µg/mL]	MIC [3] [µg/mL]	MIC [4] [µg/mL]	MIC [5] [µg/mL]	MIC [6] [µg/mL]	MIC [7] [µg/mL]	MIC [8] [µg/mL]	MIC [9] [µg/mL]	MIC [10] [µg/mL]	solubility [12]	Structure (SMILES)	selectivity ratio [11]	MIC against MRSA [13] [µg/mL]	membrane effect on gram-positive bacteria [14]	toxicity towards eukaryotic membranes [15]
< 0.06	< 0.06	< 0.06	< 0.06	< 0.06	< 0.06	< 0.06	2 (≈ 4.53 µM)	2 (≈ 4.53 µM)	< 0.06	low solubility	O=c1cc(C(F)(F)F)[nH]c2cc(C(F)(F)F)cc(Nc3ccc(C(F)(F)F)cn3)c12 [Compound 111]	> 500	–	–	–
–	–	–	–	–	–	–	–	–	–	–	O=c1cc(C(F)(F)F)[nH]c2c(OC(F)(F)F)cccc12 [DNAC-2]	–	8 (≈ 26.9 µM)	partial membrane depolarization	no toxicity towards eukaryotic membranes
